Assay results taken from patent EP0244088A2, “1-Phenyl-3-benzazepine compounds and medicaments containing these compounds for treating gastrointestinal motility disorders” (SMITHKLINE BECKMAN CORPORATION, priority 1986, dated 1987).

Each compound was assayed on lower esophageal sphincter (LES) (assay: Determination of LES pressure in the anesthetized dog). Conditions: Canis lupus familiaris, iv, Effective Dose 20 for increase in resting LES pressure, mean of individual ED20 values (N>=3), read-out: ED20 mcg/kg, i.v.
Format: in vivo, dogs
Procedure: Method for Determination of LES Pressure in the Anesthetized Dog
Mongrel or beagle dogs, male and female, are anesthetized using sodium pentobarbital (35.0 mg/kg., I.V.). Sodium pentobarbital is then continuously infused (approximatemated 6.0 mg/kg/hr) to maintain deep anesthesia. Blood pressure is monitored via a catheter surgically implanted into the femoral artery and attached to a Gould's P231D transducer. A catheter is also implanted into the femoral vein to administer test drugs. Respiration is maintained by an endotracheal tube attached to a respirator. A continuously perfused manometric catheter system including a Dent sleeve to measure sphincter pressure (Dent, Gastroenterology 7l: 263-267, l976) is inserted into the esophagus and positioned so that intraluminal pressure is recorded from the body of the esophagus, the lower esophageal sphincter (LES) and the fundus of the stomach. The Dent sleeve catheter is perfused at a rate of 0.5 ml of water per minute for each lumen of the catheter by using an Arndorfer Hydraulic Capillary Infusion System. A cannula is implanted into the gastric antrum to allow drainage of the perfusate solution and prevent intestinal distension. Continuous tracings of esophageal, LES and fundus pressure are monitored on a Grass Polygraph (Model 7D). Correct positioning of the Dent sleeve is verified by noting a high pressure zone at the LES and by administration of an intravenous dose of 5-HT (usually l0-l5 mcg/kg) which contracts the LES while having little or no recordable effect on either the body of the esophagus or the fundus. After verification of placement of the sleeve, the animal is allowed to stabilize for approximately 30 minutes.
Compounds are administered intravenously, intraduodenally or intragastrically. In most cases, succeeding doses of the same or different compounds are given only after the LES pressure has returned to approximate predosing baseline values. In all cases, the magnitude of change in LES pressure is determined from the baseline pressure immediately prior to each treatment to the maximum pressure during treatment. Since the compounds used usually produce an immediate effect on LES pressure, no pretreatment time prior to measurement is necessary during this testing.
Direct assay techniques are used to estimate an Effective Dose 20 (ED₂₀) for the test compound in individual animals. The mean ED₂₀ and 95% confidence limits are determined using the individual ED₂₀ values from a group of animals (N=≧3) that received the same treatment.

Going from Oc1cc(Cl)c2c(c1)C(c1ccccc1)CNCC2 (stereo not drawn) [compound 1, 6-Chloro-8-hydroxy-l-phenyl-2,3,4,5-tetrahydro-lH-3-benzazepine] to Oc1cc2c(cc1Br)CCNCC2c1ccccc1 (stereo not drawn) [compound 4, 7-Bromo-8-hydroxy-l-phenyl-2,3,4,5-tetrahydro-lH-3-benzazepine], the ED20 falls from 0.445 mg/kg to 0.016 mg/kg (28-fold).

Going from CS(=O)(=O)c1cc2c(cc1O)CCNCC2c1ccccc1 (stereo not drawn) [compound 2, 7-Hydroxy-8-methylsulfonyl-l-phenyl-2,3,4,5-tetrahydro-lH-3-benzazepine] to CS(=O)(=O)c1cc2c(cc1O)C(c1ccccc1)CNCC2 (stereo not drawn) [compound 3, 8-Hydroxy-7-methylsulfonyl-l-phenyl-2,3,4,5-tetrahydro-lH-3-benzazepine], the ED20 falls from 0.317 mg/kg to 0.05 mg/kg (6.3-fold).

First: Cc1cc2c(cc1O)C(c1ccccc1)CNCC2 (stereo not drawn) [compound 5, 8-Hydroxy-7-methyl-l-phenyl-2,3,4,5-tetrahydro-lH-3-benzazepine]
Second: Oc1cc2c(cc1O)C(c1ccccc1)CNCC2 (stereo not drawn) [compound 10, 7,8-dihydroxy-l-phenyl-2,3,4,5-tetrahydro-lH-3-benzazepine]
The ED20 of the first is 28-fold lower: 0.026 mg/kg for the first, 0.735 mg/kg for the second.

Going from CSc1cc2c(cc1O)C(c1ccccc1)CNCC2 (stereo not drawn) [compound 6, 8-hydroxy-7-methylthio-l-phenyl-2,3,4,5-tetrahydro-lH-3-benzazepine] to OCc1cc2c(cc1O)C(c1ccccc1)CNCC2 (stereo not drawn) [compound 14, 8-hydroxy-7-hydroxymethyl-l-phenyl-2,3,4,5-tetrahydro-lH-3-benzazepine], the ED20 rises from 0.017 mg/kg to 0.1 mg/kg (5.9-fold).

Oc1cc2c(cc1C(F)(F)F)CCNCC2c1ccccc1 (stereo not drawn) [compound 7, 8-Hydroxy-l-phenyl-7-trifluoromethyl-2,3,4,5-tetrahydro-lH-3-benzazepine] and COCc1cc2c(cc1O)C(c1ccccc1)CNCC2 (stereo not drawn) [compound 13, 8-hydroxy-7-methoxymethyl-l-phenyl-2,3,4,5-tetrahydro-lH-3-benzazepine] cannot be ordered by ED20: 0.02 mg/kg for the first, less than 0.05 mg/kg for the second.

Going from COc1cc2c(cc1Br)CCN(C)CC2c1ccccc1 (stereo not drawn) [compound 8, 7-Bromo-8-methoxy-3-methyl-l-phenyl-2,3,4,5-tetrahydro-lH-3-benzazepine] to CN1CCc2cc(Cl)c(Cl)cc2C(c2ccccc2)C1 (stereo not shown) [compound 9], the ED20 rises from 0.079 mg/kg to 0.623 mg/kg (7.9-fold).

Cc1cc2c(cc1O)C(c1ccc(O)cc1)CNCC2 (stereo not drawn) [compound 11, 8-Hydroxy-l-(4-hydroxyphenyl)-7-methyl-2,3,4,5-tetrahydro-lH-3-benzazepine] and CC(=O)Nc1cc2c(cc1O)C(c1ccccc1)CNCC2 (stereo not drawn) [compound 16, 7-Acetamido-8-hydroxy-l-phenyl-2,3,4,5-tetrahydro-lH-3-benzazepine] cannot be ordered by ED20: 0.044 mg/kg for the first, less than 2 mg/kg for the second.

CS(=O)(=O)Nc1cc2c(cc1O)CCNCC2c1ccccc1 (stereo not drawn) [compound 15, 7-hydroxy-8-methanesulfonamido-l-phenyl-2,3,4,5-tetrahydro-lH-3-benzazepine] was tested, and the ED20 was 0.5 mg/kg.

Same assay, conditions: at 250 (mcg/kg per column head), i.g.

For COc1cc2c(cc1S(C)(=O)=O)CCNCC2c1ccccc1 (stereo not drawn) [compound 12, 8-Methoxy-7-methylsulfonyl-l-phenyl-2,3,4,5-tetrahydro-lH-3-benzazepine], the “change in LES pressure (baseline to maximum during treatment)” value was 15 mm Hg at 250 (i.g.).
